ChEMBL document CHEMBL1124182, “Design, synthesis, and properties of (4S)-7-(4-amino-2-substituted-pyrrolidin-1-yl)quinolone-3-carboxylic acids” (J Med Chem, 1988)
Converted amounts (≈) assume the structure as drawn.

Assays:
Staphylococcus aureus [1] = test: In vitro Minimum inhibitory concentration against Staphylococcus aureus ATCC 6538P; type: functional
[2] = system: Staphylococcus epidermidis; test: In vitro Minimum inhibitory concentration against Staphylococcus epidermidis 3519; type: functional
Escherichia coli [3] = test: In vitro Minimum inhibitory concentration against Escherichia coli Juhl; type: functional
Acinetobacter [4] = test: In vitro Minimum inhibitory concentration against Acinetobacter CMX 669; type: functional
Klebsiella pneumoniae [5] = test: In vitro Minimum inhibitory concentration against Klebsiella pneumoniae 8045; type: functional
Streptococcus agalactiae = test: In vitro Minimum inhibitory concentration against Streptococcus agalactiae CMX 508; type: functional
Staphylococcus aureus [6] = test: In vitro Minimum inhibitory concentration against Staphylococcus aureus CMX 686B; type: functional
Staphylococcus aureus [7] = test: In vitro Minimum inhibitory concentration against Staphylococcus aureus 45; type: functional
Enterococcus faecium = test: In vitro Minimum inhibitory concentration against Streptococcus faecium ATCC 8043; type: functional
[8] = Blood level was evaluated by a disk agar diffusion assay at 3.0 hh when administered at a peroral dose of 100 mg/kg; type: ADME, organism-based; parameters: dose 100 mg/kg, route oral; settings: mouse, po, read-out: Blood level
Streptococcus pyogenes = test: In vitro Minimum inhibitory concentration against Streptococcus pyogenes 930; type: functional
Staphylococcus aureus [9] = test: In vitro Minimum inhibitory concentration against Staphylococcus aureus A5177; type: functional
Pseudomonas aeruginosa [10] = test: In vitro Minimum inhibitory concentration against Pseudomonas aeruginosa 5007; type: functional
Acinetobacter [11] = test: In vitro Minimum inhibitory concentration against Acinetobacter CMX 669
Streptococcus equinus = test: In vitro Minimum inhibitory concentration against Streptococcus bovis A5169; type: functional
Pseudomonas aeruginosa [12] = test: In vitro Minimum inhibitory concentration against Pseudomonas aeruginosa K799/WT; type: functional
Klebsiella pneumoniae [13] = test: In vitro Minimum inhibitory concentration against Klebsiella pneumoniae 8045
[14] = Partition coefficient (logP); type: physicochemical; settings: octanol/water
[15] = Compound was evaluated for the solubility in Ringer's buffer solution; type: ADME; settings: Ringer's buffer solution; read-out: Solubility
Mus musculus [16] = test: Blood level was evaluated at 2.0 hr when administered at a peroral dose of 25 mg/kg; type: functional; settings: route oral
Mus musculus [17] = test: In vivo efficacy against Staphylococcus aureus 10649, in mouse protection test when administered subcutaneously (sc); type: functional
Mus musculus [18] = test: In vivo efficacy against Escherichia coli Juhl, in mouse protection test when the administered perorally (po); type: functional
Mus musculus [19] = test: Blood level was evaluated at 3.0 hh when administered at a peroral dose of 25 mg/kg; type: functional; settings: route oral
Mus musculus [20] = test: In vivo efficacy against Escherichia coli Juhl, in mouse protection test when administered subcutaneously (sc); type: functional
Mus musculus [21] = test: Blood level was evaluated by a disk agar diffusion assay at 0.5 hr when administered at a peroral dose of 25 mg/kg; type: functional; settings: route oral
Escherichia coli [22] = test: Supercoiling inhibition assay using purified DNA gyrase isolated from Escherichia coli H560; type: functional; settings: read-out: I50
Mus musculus [23] = test: Blood level was evaluated at 24.0 hr when administered at a peroral dose of 25 mg/kg; type: functional; settings: route oral
Mus musculus [24] = test: Blood level was evaluated at 1.0 hr when administered at a peroral dose of 25 mg/kg; type: functional; settings: route oral
Mus musculus [25] = test: Blood level was evaluated at 6.0 hr when administered at a peroral dose of 25 mg/kg; type: functional; settings: route oral
Mus musculus [26] = test: In vivo efficacy against Staphylococcus aureus 10649, in mouse protection test when administered perorally (po); type: functional
Mus musculus [27] = test: In vivo efficacy against Escherichia coli Juhl, in mouse protection tests. when administered perorally (po); type: functional

Structure (SMILES) | MIC (Staphylococcus aureus [1]) [µg/mL] | MIC [2] [µg/mL] | MIC (Escherichia coli [3]) [µg/mL] | MIC (Acinetobacter [4]; Acinetobacter, read-out: MIC) [µg/mL] | MIC (Klebsiella pneumoniae [5]) [µg/mL] | MIC (Streptococcus agalactiae) [µg/mL] | MIC (Staphylococcus aureus [6]) [µg/mL] | MIC (Staphylococcus aureus [7]) [µg/mL] | MIC (Enterococcus faecium) [µg/mL] | MIC (Streptococcus pyogenes) [µg/mL] | MIC (Staphylococcus aureus [9]) [µg/mL] | MIC (Pseudomonas aeruginosa [10]) [µg/mL] | MIC (Streptococcus equinus) [µg/mL] | MIC (Pseudomonas aeruginosa [12]) [µg/mL] | logP [14] | solubility [15] [µg/mL] | ED50 (Mus musculus [17]) [mg/kg] | ED50 (Mus musculus [20]) [mg/kg] | ED50 (Mus musculus [26]) [mg/kg] | further results
NC1CCN(c2cc3c(cc2F)c(=O)c(C(=O)O)cn3-c2ccc(F)cc2F)C1 (stereo unspecified) | 0.05 (≈ 0.124 µM) | 0.1 (≈ 0.248 µM) | 0.05 (≈ 0.124 µM) | 0.1 (≈ 0.248 µM) | 0.05 (≈ 0.124 µM) | 0.2 (≈ 0.496 µM) | 0.05 (≈ 0.124 µM) | 0.1 (≈ 0.248 µM) | 0.2 (≈ 0.496 µM) | 0.2 (≈ 0.496 µM) | 0.1 (≈ 0.248 µM) | 1.56 (≈ 3.87 µM) | 0.78 (≈ 1.93 µM) | – | – | – | – | – | – | MIC (Acinetobacter [4]): 0.1 µg/mL (≈ 0.248 µM); concentration at 3 h [8]: 900 ng/mL; MIC (Acinetobacter [11]): 0.1 µg/mL (≈ 0.248 µM)
N[C@H]1CC(CN2CCCC2)N(c2cc3c(cc2F)c(=O)c(C(=O)O)cn3-c2ccc(F)cc2F)C1 (stereo partly specified) | 1.56 (≈ 3.21 µM) | 3.1 (≈ 6.37 µM) | 0.78 (≈ 1.6 µM) | – | – | 25 (≈ 51.4 µM) | 1.56 (≈ 3.21 µM) | 3.1 (≈ 6.37 µM) | 6.2 (≈ 12.7 µM) | 25 (≈ 51.4 µM) | 3.1 (≈ 6.37 µM) | 1.56 (≈ 3.21 µM) | 25 (≈ 51.4 µM) | 1.56 (≈ 3.21 µM) | -0.56 | 680 (≈ 1400 µM) | – | – | – | MIC (Klebsiella pneumoniae [13]): 0.39 µg/mL (≈ 0.802 µM)
C[C@H]1C[C@H](N)CN1c1nc2c(cc1F)c(=O)c(C(=O)O)cn2-c1ccc(F)cc1F | 0.02 (≈ 0.0478 µM) | 0.05 (≈ 0.12 µM) | 0.02 (≈ 0.0478 µM) | 0.1 (≈ 0.239 µM) | 0.02 (≈ 0.0478 µM) | 0.2 (≈ 0.478 µM) | 0.02 (≈ 0.0478 µM) | 0.05 (≈ 0.12 µM) | 0.1 (≈ 0.239 µM) | 0.2 (≈ 0.478 µM) | 0.05 (≈ 0.12 µM) | 0.78 (≈ 1.86 µM) | 0.2 (≈ 0.478 µM) | 0.78 (≈ 1.86 µM) | -0.2 | 150 (≈ 359 µM) | 0.9 | 0.6 | > 2.5 | Blood level (Mus musculus [16]): 3.3 µg/mL; ED50 (Mus musculus [18]): 2.7 mg/kg; Blood level (Mus musculus [19]): 2.8 µg/mL; Blood level (Mus musculus [21]): 5.9 µg/mL; IC50 (Escherichia coli [22]): 0.6 µg/mL (≈ 1.43 µM); Blood level (Mus musculus [23]): 0.2 µg/mL; Blood level (Mus musculus [24]): 3.2 µg/mL; Blood level (Mus musculus [25]): 1.3 µg/mL
CCC1C[C@H](N)CN1c1cc2c(cc1F)c(=O)c(C(=O)O)cn2-c1ccc(F)cc1F (stereo partly specified) | 0.05 (≈ 0.116 µM) | 0.1 (≈ 0.232 µM) | 0.1 (≈ 0.232 µM) | 0.2 (≈ 0.464 µM) | 0.05 (≈ 0.116 µM) | 0.1 (≈ 0.232 µM) | 0.05 (≈ 0.116 µM) | 0.1 (≈ 0.232 µM) | 0.2 (≈ 0.464 µM) | 0.1 (≈ 0.232 µM) | 0.1 (≈ 0.232 µM) | 6.2 (≈ 14.4 µM) | 0.2 (≈ 0.464 µM) | 0.78 (≈ 1.81 µM) | – | – | 0.8 | 2.4 | 2.4 | ED50 (Mus musculus [27]): 9.6 mg/kg
